US20250270213A1, “PI3Ka INHIBITORS” (Synnovation Therapeutics, Inc., priority 2022, published 2025)

System: T47D (PIK3CA H1047R) cells
Assay: pS473 AKT assay with 2.5% FBS, T47D cells
Type: cell-based
Details: Homo sapiens, pSer473 AKT, DMEM with 2.5% FBS, 2 h treatment, read-out: T47D_IC50
In short: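 T47D (PIK3CA H1047R) cells were switched to DMEM with 2.5% FBS and exposed to compounds for 2 h. After paraformaldehyde fixation, pSer473 AKT was detected by in-cell ELISA (rabbit primary, HRP anti-rabbit secondary, chemiluminescence); IC50 values were fitted from the concentration series.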

IC50, < 1000 nM:
Cc1cc(C(C)Nc2ccc(Cl)nc2-c2cnn(C)c2)c2c(c1)c(=O)n(C)c1c(C(=O)N(C)C)ncn21 (stereo not drawn) [Compound 120, 9-(1-((6-Chloro-2-(1-methyl-1H-pyrazol-4-yl)pyridin-3-yl)amino)ethyl)-N,N,4,7-tetramethyl-5-oxo-4,5-dihydroimidazo[1,5-a]quinazoline-3-carboxamide]
Cc1cc(C(C)Nc2ccc(Cl)nc2-c2cnn(C)c2)c2c(c1)c(=O)n(C)c1c(C(=O)N3CCC3)ncn21 (stereo not drawn) [Compound 121, 3-(azetidine-1-carbonyl)-9-(1-((6-chloro-2-(1-methyl-1H-pyrazol-4-yl)pyridin-3-yl)amino)ethyl)-4,7-dimethylimidazo[1,5-a]quinazolin-5(4H)-one]
Cc1cc(C(C)Nc2ccc(Cl)nc2-c2cnn(C)c2)c2c(c1)c(=O)n(C)c1c(C(=O)N3CC(O)C3)ncn21 (stereo not drawn) [Compound 122, 9-(1-((6-chloro-2-(1-methyl-1H-pyrazol-4-yl)pyridin-3-yl)amino)ethyl)-3-(3-hydroxyazetidine-1-carbonyl)-4,7-dimethylimidazo[1,5-a]quinazolin-5(4H)-one]
Cc1cc(C(C)Nc2ccc(Cl)nc2-c2ncn(C)n2)c2c(c1)c(=O)n(CC(F)F)c1c(C(=O)N(C)C)ncn21 (stereo not drawn) [Compound 123, 9-(1-((6-chloro-2-(1-methyl-1H-1,2,4-triazol-3-yl)pyridin-3-yl)amino)ethyl)-4-(2,2-difluoroethyl)-N,N,7-trimethyl-5-oxo-4,5-dihydroimidazo[1,5-a]quinazoline-3-carboxamide]
Cc1cc(C(C)Nc2ccc(Cl)nc2-c2c[nH]nc2C)c2c(c1)c(=O)n(C)c1c(C(=O)N(C)C)ncn21 (stereo not drawn) [Compound 124, 9-(1-((6-Chloro-2-(3-methyl-1H-pyrazol-4-yl)pyridin-3-yl)amino)ethyl)-N,N,4,7-tetramethyl-5-oxo-4,5-dihydroimidazo[1,5-a]quinazoline-3-carboxamide]
Cc1cc(C(C)Nc2ccc(Cl)nc2-c2ccc(C#N)cc2F)c2c(c1)c(=O)n(C)c1c(C(=O)N(C)C)ncn21 (stereo not drawn) [Compound 125, 9-(1-((6-chloro-2-(4-cyano-2-fluorophenyl)pyridin-3-yl)amino)ethyl)-N,N,4,7-tetramethyl-5-oxo-4,5-dihydroimidazo[1,5-a]quinazoline-3-carboxamide]
Cc1cc(C(C)Nc2ccc(Cl)nc2-c2ccc(C#N)cc2)c2c(c1)c(=O)n(C)c1c(C(=O)N(C)C)ncn21 (stereo not drawn) [Compound 126, 9-(1-((6-chloro-2-(4-cyanophenyl)pyridin-3-yl)amino)ethyl)-N,N,4,7-tetramethyl-5-oxo-4,5-dihydroimidazo[1,5-a]quinazoline-3-carboxamide]
Cc1cc(C(C)Nc2ccc(Cl)nc2N2CCOCC2)c2c(c1)c(=O)n(C)c1c(C(=O)N(C)C)ncn21 (stereo not drawn) [Compound 127, 9-(1-((6-chloro-2-morpholinopyridin-3-yl)amino)ethyl)-N,N,4,7-tetramethyl-5-oxo-4,5-dihydroimidazo[1,5-a]quinazoline-3-carboxamide]
Cc1cc(C(C)Nc2ccc(F)cc2-c2cnn(C)c2)c2c(c1)c(=O)n(C)c1c(C(=O)N(C)C)ncn21 (stereo not drawn) [Compound 128, 9-(1-((4-fluoro-2-(1-methyl-1H-pyrazol-4-yl)phenyl)amino)ethyl)-N,N,4,7-tetramethyl-5-oxo-4,5-dihydroimidazo[1,5-a]quinazoline-3-carboxamide]
Cc1cc(C(C)Nc2ccc(Cl)nc2-c2cnn(C)c2C)c2c(c1)c(=O)n(C)c1c(C(=O)N(C)C)ncn21 (stereo not drawn) [Compound 129, 9-(1-((6-chloro-2-(1,5-dimethyl-1H-pyrazol-4-yl)pyridin-3-yl)amino)ethyl)-N,N,4,7-tetramethyl-5-oxo-4,5-dihydroimidazo[1,5-a]quinazoline-3-carboxamide]
Cc1cc(C(C)Nc2ccc(Cl)nc2-c2cn(C)nc2C)c2c(c1)c(=O)n(C)c1c(C(=O)N(C)C)ncn21 (stereo not drawn) [Compound 130, 9-(1-((6-chloro-2-(1,3-dimethyl-1H-pyrazol-4-yl)pyridin-3-yl)amino)ethyl)-N,N,4,7-tetramethyl-5-oxo-4,5-dihydroimidazo[1,5-a]quinazoline-3-carboxamide]
Cc1cc(C(C)Nc2ccc(Cl)nc2-c2ncn(C)n2)c2c(c1)c(=O)n(C)c1c(C3CCN(C)CC3)ncn21 (stereo not drawn) [Compound 131, 9-(1-((6-Chloro-2-(1-methyl-1H-1,2,4-triazol-3-yl)pyridin-3-yl)amino)ethyl)-4,7-dimethyl-3-(1-methylpiperidin-4-yl) imidazo[1,5-a]quinazolin-5(4H)-one]
CC(=O)N1CCC(c2ncn3c4c(C(C)Nc5ccc(Cl)nc5-c5ncn(C)n5)cc(C)cc4c(=O)n(C)c23)CC1 (stereo not drawn) [Compound 132, 3-(1-Acetylpiperidin-4-yl)-9-(1-((6-chloro-2-(1-methyl-1H-1,2,4-triazol-3-yl)pyridin-3-yl)amino)ethyl)-4,7-dimethylimidazo[1,5-a]quinazolin-5(4H)-one]
CCOC(=O)N1CCC(c2ncn3c4c(C(C)Nc5ccc(Cl)nc5-c5ncn(C)n5)cc(C)cc4c(=O)n(C)c23)CC1 (stereo not drawn) [Compound 133, ethyl 4-(9-(1-((6-chloro-2-(1-methyl-1H-1,2,4-triazol-3-yl)pyridin-3-yl)amino)ethyl)-4,7-dimethyl-5-oxo-4,5-dihydroimidazo[1,5-a]quinazolin-3-yl)piperidine-1-carboxylate]
Cc1cc(C(C)Nc2ccc(Cl)nc2-c2cnn(C)c2)c2c(c1)c(=O)n(C)c1c(C3CCN(C)CC3)ncn21 (stereo not drawn) [Compound 134, 9-(1-((6-Chloro-2-(1-methyl-1H-pyrazol-4-yl)pyridin-3-yl)amino)ethyl)-4,7-dimethyl-3-(1-methylpiperidin-4-yl) imidazo[1,5-a]quinazolin-5(4H)-one]
Cc1cc(C(C)Nc2ccc(Cl)nc2-c2cnn(C)c2)c2c(c1)c(=O)n(C)c1c2cnn1C1CCN(C)C1 (stereo not drawn) [Compound 135, 9-(1-((6-Chloro-2-(1-methyl-1H-pyrazol-4-yl)pyridin-3-yl)amino)ethyl)-4,7-dimethyl-3-(1-methylpyrrolidin-3-yl)-3,4-dihydro-5H-pyrazolo[3,4-c]isoquinolin-5-one]
Cc1cc(C(C)Nc2ccc(Cl)nc2-c2ncn(C)n2)c2c(c1)c(=O)n(C)c1c2cnn1C1CCN(C)C1 (stereo not drawn) [Compound 136, 9-(1-((6-chloro-2-(1-methyl-1H-1,2,4-triazol-3-yl)pyridin-3-yl)amino)ethyl)-4,7-dimethyl-3-(1-methylpyrrolidin-3-yl)-3,4-dihydro-5H-pyrazolo[3,4-c]isoquinolin-5-one]
CCN1CCC(n2ncc3c4c(C(C)Nc5ccc(Cl)nc5-c5ncn(C)n5)cc(C)cc4c(=O)n(C)c32)C1 (stereo not drawn) [Compound 137, 9-(1-((6-chloro-2-(1-methyl-1H-1,2,4-triazol-3-yl)pyridin-3-yl)amino)ethyl)-3-(1-ethylpyrrolidin-3-yl)-4,7-dimethyl-3,4-dihydro-5H-pyrazolo[3,4-c]isoquinolin-5-one]
Cc1cc(C(C)Nc2ccc(Cl)nc2-c2ncn(C)n2)c2c(c1)c(=O)n(C)c1c2cnn1C1CCN(CCO)C1 (stereo not drawn) [Compound 138, 9-(1-((6-chloro-2-(1-methyl-1H-1,2,4-triazol-3-yl)pyridin-3-yl)amino)ethyl)-3-(1-(2-hydroxyethyl)pyrrolidin-3-yl)-4,7-dimethyl-3,4-dihydro-5H-pyrazolo[3,4-c]isoquinolin-5-one]
[2H]C([2H])([2H])n1c(=O)c2cc(C)cc(C(C)Nc3ccc(Cl)nc3-c3nnn(C)n3)c2c2cnn(C3CCN(C)C3)c21 (stereo not drawn) [Compound 139, 9-(1-((6-chloro-2-(2-methyl-2H-tetrazol-5-yl)pyridin-3-yl)amino)ethyl)-7-methyl-4-(methyl-d3)-3-(1-methylpyrrolidin-3-yl)-3,4-dihydro-5H-pyrazolo[3,4-c]isoquinolin-5-one]
[2H]C([2H])([2H])n1c(=O)c2cc(C)cc(C(C)Nc3ccc(Cl)nc3-c3cnn(C)c3)c2c2cnn(C3CCN(CCO)C3)c21 (stereo not drawn) [Compound 140, 9-(1-((6-chloro-2-(1-methyl-1H-pyrazol-4-yl)pyridin-3-yl)amino)ethyl)-3-(1-(2-hydroxyethyl)pyrrolidin-3-yl)-7-methyl-4-(methyl-d3)-3,4-dihydro-5H-pyrazolo[3,4-c]isoquinolin-5-one]
Cc1cc(C(C)Nc2ccc(Cl)nc2-c2ccncc2F)c2c(c1)c(=O)n(C)c1c2cnn1C1CCN(C(C)C)C1 (stereo not drawn) [Compound 141, 9-(1-((6-chloro-3′-fluoro-[2,4′-bipyridin]-3-yl)amino)ethyl)-3-(1-isopropylpyrrolidin-3-yl)-4,7-dimethyl-3,4-dihydro-5H-pyrazolo[3,4-c]isoquinolin-5-one]
Cc1cc(C(C)Nc2ccc(Cl)nc2-c2cnn(C)c2)c2c(c1)c(=O)n(C)c1c2cnn1C1CCN(CC(F)F)C1 (stereo not drawn) [Compound 142, 9-(1-((6-Chloro-2-(1-methyl-1H-pyrazol-4-yl)pyridin-3-yl)amino)ethyl)-3-(1-(2,2-difluoroethyl)pyrrolidin-3-yl)-4,7-dimethyl-3,4-dihydro-5H-pyrazolo[3,4-c]isoquinolin-5-one]
[2H]C([2H])([2H])n1c(=O)c2cc(C)cc(C(C)Nc3ccc(Cl)nc3-c3cnn(C)c3)c2c2cnn(C3CCN(CC(F)F)C3)c21 (stereo not drawn) [Compound 143, 9-(1-((6-chloro-2-(1-methyl-1H-pyrazol-4-yl)pyridin-3-yl)amino)ethyl)-3-(1-(2,2-difluoroethyl)pyrrolidin-3-yl)-7-methyl-4-(methyl-d3)-3,4-dihydro-5H-pyrazolo[3,4-c]isoquinolin-5-one]
